These results are taken from patent publication US11638706B2, “Methods for treating Huntington's disease” (PTC Therapeutics, Inc., priority 2015, dated 2023).

A value given as a limit tells only on which side of the number the result lay.

This experiment concerns Huntingtin protein (HTT). Description: Endogenous Huntingtin Protein Assay (MSD electrochemiluminescence ELISA; MW1 or MAB2166 capture, #5656S detection). Format: cell-based, human. The procedure: The Endogenous Huntingtin Protein assay used in Example 2 was developed using the Best Pair antibodies identified in Table 2, providing highly sensitive, high-throughput detection assays for polyglutamine-expanded (mHTT) and total human HTT in multiple cell systems. The platform used for the assay is the ELISA-based Meso Scale Discovery (MSD) electrochemiluminescence assay platform.
Meso Scale Discovery (MSD) 96-well or 384-well plates were coated overnight at 4° C. with MW1 (expanded polyglutamine) or MAB2166 monoclonal antibody (for capture) at a concentration of 1 μg/mL in PBS (30 μL per well). Plates were then washed three times with 300 μL wash buffer (0.05% Tween-20 in PBS) and blocked (100 μL blocking buffer; 5% BSA in PBS) for 4-5 hours at room temperature with rotational shaking and then washed three times with wash buffer.
Samples (25 μL) were transferred to the antibody-coated MSD plate and incubated overnight at 4° C. After removal of the lysates, the plate was washed three times with wash buffer, and 25 μL of #5656S (Cell signaling; rabbit monoclonal) secondary antibody (diluted to 0.25 μg/mL in 0.05% Tween-20 in blocking buffer) was added to each well and incubated with shaking for 1 Hour at room temperature. Following incubation with the secondary antibody, the wells were rinsed with wash buffer after which 25 μL of goat anti-rabbit SULFO TAG secondary detection antibody (required aspect of the MSD system) (diluted to 0.25 μg/mL in 0.05% Tween-20 in blocking buffer) was added to each well and incubated with shaking for 1 hour at room temperature. After rinsing three times with wash buffer, 150 μL of read buffer T with surfactant (MSD) were added to each empty well, and the plate was imaged on a SI 6000 imager (MSD) according to manufacturers' instructions provided for 96- or 384-well plates.
A general note: An ELISA detects its analyte on a solid surface through an enzyme-linked reagent.

On to “5-(5-methyl-1H-pyrazol-4-yl)-2-{6-[(2,2,6,6-tetramethylpiperidin-4-yl)oxy]pyridazin-3-yl}phenol [Cpd 418]”, for which the IC50 is at most 100 nM.

In the case of `CN(c1ccc(-c2ccc3nccn3c2)nn1)C1CC(C)(C)NC(C)(C)C1` [Cpd 16, 6-(imidazo[1,2-a]pyridin-6-yl)-N-methyl-N-(2,2,6,6-tetramethylpiperidin-4-yl)pyridazin-3-amine], the IC50 was in the range of 3000 to 9000 nM.

Regarding `CN(c1ccc(-c2ccc(-c3cn[nH]c3)nc2O)nn1)C1CC(C)(C)NC(C)(C)C1` [Cpd 460, 3-{6-[methyl(2,2,6,6-tetramethylpiperidin-4-yl)amino]pyridazin-3-yl}-6-(1H-pyrazol-4-yl)pyridin-2-ol], the half-maximal inhibitory concentration (IC50) lay within 3000 to 9000 nM.

`CC1(C)CC(Oc2ccc(-c3nc(-c4cn[nH]c4)ncc3N)nn2)CC(C)(C)N1` [Cpd 457, 2-(1H-pyrazol-4-yl)-4-{6-[(2,2,6,6-tetramethylpiperidin-4-yl)oxy]pyridazin-3-yl}pyrimidin-5-amine]: the IC50 was in the range of 3000 to 9000 nM.

For the molecule `CC1CC(Oc2ccc(-c3ccc(-n4cccn4)cc3O)nn2)CC(C)N1` (stereo not drawn) [Cpd 441, 2-{6-[(2,6-dimethylpiperidin-4-yl)oxy]pyridazin-3-yl}-5-(1H-pyrazol-1-yl)phenol], the IC50 was 3000 to 9000 nM.

Molecule `CC1(C)CC(Oc2ccc(-c3ccc(O)cc3O)nn2)CC(C)(C)N1` [Cpd 455, 4-{6-[(2,2,6,6-tetramethylpiperidin-4-yl)oxy]pyridazin-3-yl}benzene-1,3-diol] came in with an IC50 of 3000 to 9000 nM.

Take `CCN1CC=C(c2ccc(-c3ccc(-c4cn[nH]c4)cc3O)nn2)CC1` [Cpd 425, 2-[6-(1-ethyl-1,2,3,6-tetrahydropyridin-4-yl)pyridazin-3-yl]-5-(1H-pyrazol-4-yl)phenol]: the IC50 lay in the range of 100 to 500 nM.

`CN(c1ccc(-c2ccc(O)cc2F)nn1)C1CC(C)(C)NC(C)(C)C1` [Cpd 440, 3-fluoro-4-{6-[methyl(2,2,6,6-tetramethylpiperidin-4-yl)amino]pyridazin-3-yl}phenol] showed an IC50 of 3000 to 9000 nM.

For `CC1(C)CC(Oc2ccc(-c3ccc(-n4cccn4)cc3O)nn2)CC(C)(C)N1` [Cpd 63, 5-1H-pyrazol-1-yl-2-(6-(2,2,6,6-tetramethylpiperidin-4-yl-oxy)-pyridazin-3-yl)phenol], the IC50 was at most 100 nM.

As for `CN(c1ccc(-c2ccc(-c3cn[nH]c3)cc2O)nn1)C1CCNCC1` [Cpd 426, 2-{6-[methyl(piperidin-4-yl)amino]pyridazin-3-yl}-5-(1H-pyrazol-4-yl)phenol], the IC50 was in the range of 100 to 500 nM.

In turn, `CC1CC(Oc2ccc(-c3ccc(-c4cn[nH]c4)cc3O)nn2)CC(C)N1` (stereo not drawn) [Cpd 436, 2-{6-[(2,6-dimethylpiperidin-4-yl)oxy]pyridazin-3-yl}-5-(1H-pyrazol-4-yl)phenol] registered an IC50 of 500 to 1000 nM.

`COc1cc(Cl)ccc1-c1ccc(OC2CC(C)(C)NC(C)(C)C2)nn1` [Cpd 444, 3-(4-chloro-2-methoxyphenyl)-6-[(2,2,6,6-tetramethylpiperidin-4-yl)oxy]pyridazine] had an IC50 of 3000 to 9000 nM.

Regarding `Oc1cc(-c2cn[nH]c2)ccc1-c1ccc(OC2CCNCC2)nn1` [Cpd 432, 2-[6-(piperidin-4-yloxy)pyridazin-3-yl]-5-(1H-pyrazol-4-yl)phenol], the concentration for half-maximal inhibition (IC50) was in the range of 100 to 500 nM.

The molecule `Oc1cc(-c2cn[nH]c2)ccc1-c1ccc(NC2C[C@H]3CC[C@@H](C2)N3)nn1` (stereo partly drawn) [Cpd 412, 2-[6-((1R,5S)-8-azabicyclo[3.2.1]oct-3-ylamino)pyridazin-3-yl]-5-(1H-pyrazol-4-yl)phenol] displayed an IC50 of at most 100 nM.

`Cc1[nH]ncc1-c1ccc(-c2ccc(N(C)C3CC(C)(C)NC(C)(C)C3)nn2)c(O)c1` [Cpd 416, 5-(5-methyl-1H-pyrazol-4-yl)-2-{6-[methyl(2,2,6,6-tetramethylpiperidin-4-yl)amino]pyridazin-3-yl}phenol]: the IC50 is at most 100 nM.

For the molecule `CN(c1ccc(-c2ccc(-c3cn[nH]c3)cc2F)nn1)C1CC(C)(C)NC(C)(C)C1` [Cpd 452, 6-[2-fluoro-4-(1H-pyrazol-4-yl)phenyl]-N-methyl-N-(2,2,6,6-tetramethylpiperidin-4-yl)pyridazin-3-amine], the concentration for half-maximal inhibition (IC50) was in the range of 3000 to 9000 nM.

For “5-(3,5-dimethyl-1H-pyrazol-4-yl)-2-{6-[(2,2,6,6-tetramethylpiperidin-4-yl)oxy]pyridazin-3-yl}phenol [Cpd 451]”, the IC50 lay within 3000 to 9000 nM.

`CC1(C)CC(Oc2ccc(-c3ccc(-n4ccnc4)cc3O)nn2)CC(C)(C)N1` [Cpd 417, 5-(1H-imidazol-1-yl)-2-{6-[(2,2,6,6-tetramethylpiperidin-4-yl)oxy]pyridazin-3-yl}phenol] gave an IC50 of at most 100 nM.

`CN(c1ccc(-c2ccc(-c3cn[nH]c3)cc2O)nn1)C1C[C@H]2CC[C@@H](C1)N2` (stereo partly drawn) [Cpd 411, 2-{6-[(1R,5S)-8-azabicyclo[3.2.1]oct-3-yl(methyl)amino]pyridazin-3-yl}-5-(1H-pyrazol-4-yl)phenol] displayed an IC50 of at most 100 nM.

In turn, `CN(c1ccc(-c2cc3cncnc3cc2O)nn1)C1CC(C)(C)NC(C)(C)C1` [Cpd 258, 6-(6-(methyl(2,2,6,6-tetramethylpiperidin-4-yl)amino)pyridazin-3-yl)quinazolin-7-ol] came in with an IC50 of 100 to 500 nM.

As to `Oc1cc(-c2cn[nH]c2)ccc1-c1ccc(C2=CC3CCC(C2)N3)nn1` (stereo not drawn) [Cpd 429, 2-[6-(8-azabicyclo[3.2.1]oct-2-en-3-yl)pyridazin-3-yl]-5-(1H-pyrazol-4-yl)phenol], the IC50 fell in the range of 100 to 500 nM.

Turning to `COc1cc(-n2cc([N+](=O)[O-])cn2)ccc1-c1ccc(N(C)C2CC(C)(C)NC(C)(C)C2)nn1` [Cpd 420, 6-[2-methoxy-4-(4-nitro-1H-pyrazol-1-yl)phenyl]-N-methyl-N-(2,2,6,6-tetramethylpiperidin-4-yl)pyridazin-3-amine], the IC50 was at most 100 nM.

On to `CN(c1ccc(-c2cc3cccnc3cc2O)nn1)C1CC(C)(C)NC(C)(C)C1` [Cpd 207, 6-(6-(methyl(2,2,6,6-tetramethylpiperidin-4-yl)amino)pyridazin-3-yl)quinolin-7-ol], for which the IC50 lay within 100 to 500 nM.

Molecule `CN(c1nnc(-c2ccc(-c3cnn(C)c3)cc2O)s1)C1CC(C)(C)NC(C)(C)C1` [Cpd 315] returned an IC50 of at most 100 nM.

For the molecule `CN(c1ccc(-c2cc3cnccc3cc2O)nn1)C1CC(C)(C)NC(C)(C)C1` [Cpd 212, 7-(6-(methyl(2,2,6,6-tetramethylpiperidin-4-yl)amino)pyridazin-3-yl)isoquinolin-6-ol], the IC50 is at most 100 nM.

`CN(c1ccc(-c2cc3ccncc3cc2O)nn1)C1CC(C)(C)NC(C)(C)C1` [Cpd 218, 6-(6-(methyl(2,2,6,6-tetramethylpiperidin-4-yl)amino)pyridazin-3-yl)isoquinolin-7-ol] came in with an IC50 of at most 100 nM.

In turn, `Oc1cc(-c2cn[nH]c2)ccc1-c1ccc(N2C[C@H]3CNC[C@H]3C2)nn1` [Cpd 200, 2-(6-((3aR,6aS)-hexahydropyrrolo[3,4-c]pyrrol-2(1H)-yl)pyridazin-3-yl)-5-(1H-pyrazol-4-yl)phenol] came in with an IC50 of at most 100 nM.

Turning to `CN(c1nnc(-c2c(F)cc(-c3cn[nH]c3)cc2F)s1)C1CC(C)(C)NC(C)(C)C1` [Cpd 352], the IC50 was 100 to 500 nM.

In turn, `CC1(C)CC(Oc2ccc(-c3ccc4nccn4c3)nn2)CC(C)(C)N1` [Cpd 446, 6-{6-[(2,2,6,6-tetramethylpiperidin-4-yl)oxy]pyridazin-3-yl}imidazo[1,2-a]pyridine] registered an IC50 of 3000 to 9000 nM.

On to `CN(c1ccc(-c2ccc(-c3cn[nH]c3)c(F)c2F)nn1)C1CC(C)(C)NC(C)(C)C1` [Cpd 430, 6-[2,3-difluoro-4-(1H-pyrazol-4-yl)phenyl]-N-methyl-N-(2,2,6,6-tetramethylpiperidin-4-yl)pyridazin-3-amine], for which the IC50 was in the range of 100 to 500 nM.

On to `CC1(C)CC(Oc2ccc(-c3ccc(-n4cc(N)cn4)cc3O)nn2)CC(C)(C)N1` [Cpd 421, 5-(4-amino-1H-pyrazol-1-yl)-2-{6-[(2,2,6,6-tetramethylpiperidin-4-yl)oxy]pyridazin-3-yl}phenol], for which the IC50 was at most 100 nM.

As to `CN(c1ccc(-c2cc(F)c(-c3cn[nH]c3)cc2F)nn1)C1CC(C)(C)NC(C)(C)C1` [Cpd 428, 6-[2,5-difluoro-4-(1H-pyrazol-4-yl)phenyl]-N-methyl-N-(2,2,6,6-tetramethylpiperidin-4-yl)pyridazin-3-amine], the IC50 is 100 to 500 nM.

With `CC1(C)CC(Oc2ccc(-c3cc(F)c(-c4cn[nH]c4)cc3F)nn2)CC(C)(C)N1` [Cpd 431, 3-[2,5-difluoro-4-(1H-pyrazol-4-yl)phenyl]-6-[(2,2,6,6-tetramethylpiperidin-4-yl)oxy]pyridazine], the IC50 lay in the range of 100 to 500 nM.

In turn, `Cc1nn2ccccc2c1-c1ccc(N(C)C2CC(C)(C)NC(C)(C)C2)nn1` [Cpd 445, N-methyl-6-(2-methylpyrazolo[1,5-a]pyridin-3-yl)-N-(2,2,6,6-tetramethylpiperidin-4-yl)pyridazin-3-amine] displayed an IC50 of 3000 to 9000 nM.

In turn, `CN(c1nnc(-c2ccc(-c3cn[nH]c3)c(F)c2F)s1)C1CC(C)(C)NC(C)(C)C1` [Cpd 348] displayed an IC50 of at most 100 nM.

`CC1(C)CC(Oc2ccc(-c3ccc(-c4cn[nH]c4)cc3O)nn2)CC(C)(C)N1` [Cpd 64, 5-(1H-pyrazol-4-yl)-2-(6-((2,2,6,6-tetramethylpiperidin-4-yl)oxy)pyridazin-3-yl)phenol] registered an IC50 of at most 100 nM.

One may read the IC50 as the concentration that inhibits the measured activity by half. The low end stands for inhibition by little substance, the high end for a need for much substance.
